Assay results as given in PubChem BioAssay (NCI).
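Protocol summary: plate cells (96-well), add compound at 5 concentrations, incubate 48 h, interpolate endpoints linearly. GI50 is the concentration that inhibits growth by half. TGI: concentration producing complete growth inhibition.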

Assays:
Test in all cases: DTP human tumour cell line panel, 48 h
[1] = tested on: 786-0 renal
[2] = tested on: A498 renal
[3] = tested on: A549 NSCLC
[4] = tested on: ACHN renal
[5] = tested on: BT-549 breast
[6] = tested on: CAKI-1 renal
[7] = tested on: CCRF-CEM leukemia
[8] = tested on: COLO 205 colon
[9] = tested on: DU-145 prostate
[10] = tested on: EKVX NSCLC
[11] = tested on: HCC-2998 colon
[12] = tested on: HCT-116 colon
[13] = tested on: HCT-15 colon
[14] = tested on: HL-60(TB) leukemia
[15] = tested on: HOP-62 NSCLC
[16] = tested on: HOP-92 NSCLC
[17] = tested on: HS 578T breast
[18] = tested on: HT29 colon
[19] = tested on: IGROV1 ovarian
[20] = tested on: K-562 leukemia
[21] = tested on: KM12 colon
[22] = tested on: M14 melanoma
[23] = tested on: MALME-3M melanoma
[24] = tested on: MCF7 breast
[25] = tested on: MDA-MB-231 breast
[26] = tested on: MDA-MB-435
[27] = tested on: MDA-N
[28] = tested on: MOLT-4 leukemia
[29] = tested on: NCI-H226 lung
[30] = tested on: NCI-H23 lung
[31] = tested on: NCI-H460 lung
[32] = tested on: NCI-H522 lung
[33] = tested on: NCI/ADR-RES ovarian
[34] = tested on: OVCAR-3 ovarian
[35] = tested on: OVCAR-4 ovarian
[36] = tested on: OVCAR-5 ovarian
[37] = tested on: OVCAR-8 ovarian
[38] = tested on: PC-3 prostate
[39] = tested on: RPMI-8226 leukemia
[40] = tested on: RXF 393 renal
[41] = tested on: SF-268 CNS
[42] = tested on: SF-295 CNS
[43] = tested on: SF-539 CNS
[44] = tested on: SK-MEL-2 melanoma
[45] = tested on: SK-MEL-5 melanoma
[46] = tested on: SN12C renal
[47] = tested on: SNB-19 CNS
[48] = tested on: SNB-75 CNS
[49] = tested on: SR leukemia
[50] = tested on: SW-620 colon
[51] = tested on: TK-10 renal
[52] = tested on: U251 CNS
[53] = tested on: UACC-257 melanoma
[54] = tested on: UACC-62 melanoma
[55] = tested on: UO-31 renal
[56] = tested on: LOX IMVI melanoma
[57] = tested on: SK-MEL-28 melanoma
[58] = tested on: SK-OV-3 ovarian
[59] = tested on: T-47D breast

C(=NC12CC3CC(CC(C3)C1)C2)C1CCCCC1
TGI [1]: > 100 µM
TGI [2]: > 100 µM
TGI [3]: > 100 µM
TGI [4]: > 100 µM
TGI [5]: > 100 µM
TGI [6]: > 100 µM
TGI [7]: > 100 µM
TGI [8]: > 100 µM
TGI [9]: > 100 µM
TGI [10]: > 100 µM
TGI [11]: > 100 µM
TGI [12]: > 100 µM
TGI [13]: > 100 µM
TGI [14]: > 100 µM
TGI [15]: > 100 µM
TGI [16]: > 100 µM
TGI [17]: > 100 µM
TGI [18]: > 100 µM
TGI [19]: > 100 µM
TGI [20]: > 100 µM
TGI [21]: > 100 µM
TGI [22]: > 100 µM
TGI [23]: > 100 µM
TGI [24]: > 100 µM
TGI [25]: > 100 µM
TGI [26]: > 100 µM
TGI [27]: > 100 µM
TGI [28]: > 100 µM
TGI [29]: > 100 µM
TGI [30]: > 100 µM
TGI [31]: > 100 µM
TGI [32]: > 100 µM
TGI [33]: > 100 µM
TGI [34]: > 100 µM
TGI [35]: > 100 µM
TGI [36]: > 100 µM
TGI [37]: > 100 µM
TGI [38]: > 100 µM
TGI [39]: > 100 µM
TGI [40]: > 100 µM
TGI [41]: > 100 µM
TGI [42]: > 100 µM
TGI [43]: > 100 µM
TGI [44]: > 100 µM
TGI [45]: > 100 µM
TGI [46]: > 100 µM
TGI [47]: > 100 µM
TGI [48]: > 100 µM
TGI [49]: > 100 µM
TGI [50]: > 100 µM
TGI [51]: > 100 µM
TGI [52]: > 100 µM
TGI [53]: > 100 µM
TGI [54]: > 100 µM
TGI [55]: > 100 µM

CC1OC(OC2C(OC(=O)[C@]34CCC(C)(C)C[C@H]3C3=CC[C@@H]5[C@@]6(C)CC[C@H](OC7OC(CO)C(O)C(O)C7OC7OC(CO)C(O)C(O)C7O)C(C)(C)[C@@H]6CC[C@@]5(C)[C@]3(C)CC4)OCC(O)C2O)C(O)C(O)C1OC1OCC(O)C(O)C1O (some centres not stated)
TGI [1]: 24 µM
TGI [2]: 6.06 µM
TGI [3]: 19.2 µM
TGI [4]: 24.5 µM
TGI [5]: 23.7 µM
TGI [6]: 18.3 µM
TGI [7]: 42.3 µM
TGI [8]: 3.28 µM
TGI [9]: 24.8 µM
TGI [10]: 18.6 µM
TGI [11]: 4.79 µM
TGI [12]: 44.8 µM
TGI [13]: 32.1 µM
TGI [14]: 15.1 µM
TGI [15]: 30.8 µM
TGI [16]: 20.4 µM
TGI [17]: 40.2 µM
TGI [18]: 19.8 µM
TGI [19]: 44.9 µM
TGI [20]: 27.6 µM
TGI [21]: 21.8 µM
TGI [56]: 37.7 µM
TGI [22]: 16.7 µM
TGI [23]: 12.6 µM
TGI [24]: 29.3 µM
TGI [25]: 22.2 µM
TGI [26]: 7.34 µM
TGI [28]: 46.3 µM
TGI [29]: 26.2 µM
TGI [30]: 24.5 µM
TGI [31]: > 67.4 µM
TGI [32]: 12.1 µM
TGI [33]: 29.1 µM
TGI [34]: > 100 µM
TGI [35]: 29.5 µM
TGI [36]: 21.7 µM
TGI [37]: 38.9 µM
TGI [38]: 25.8 µM
TGI [39]: 31.6 µM
TGI [40]: 25.4 µM
TGI [41]: 21.4 µM
TGI [42]: 25.7 µM
TGI [43]: > 100 µM
TGI [44]: 17.2 µM
TGI [57]: 6.04 µM
TGI [45]: 28 µM
TGI [58]: 31.9 µM
TGI [46]: 9.27 µM
TGI [47]: 28.9 µM
TGI [48]: 31 µM
TGI [49]: 23.8 µM
TGI [50]: 39.4 µM
TGI [59]: 42.3 µM
TGI [51]: 21.7 µM
TGI [52]: 29.2 µM
TGI [53]: 9.17 µM
TGI [54]: 33.1 µM
TGI [55]: 6.17 µM

Nc1cc(C(F)(F)F)c(-c2nc(N3CCOCC3)nc(N3CCOCC3)n2)cn1
GI50 [1]: 0.482 µM
TGI [1]: 6.33 µM
GI50 [2]: 0.14 µM
TGI [2]: 0.45 µM
GI50 [3]: 0.416 µM
TGI [3]: 8.62 µM
GI50 [4]: 0.403 µM
TGI [4]: > 100 µM
GI50 [5]: 0.265 µM
TGI [5]: 3.84 µM
GI50 [6]: 0.502 µM
TGI [6]: > 71.7 µM
GI50 [7]: 2.97 µM
TGI [7]: > 100 µM
GI50 [8]: 0.265 µM
TGI [8]: 10 µM
GI50 [9]: 0.475 µM
TGI [9]: > 100 µM
GI50 [10]: 0.31 µM
TGI [10]: 5.02 µM
GI50 [11]: 0.633 µM
TGI [11]: > 88 µM
GI50 [12]: 0.605 µM
TGI [12]: > 100 µM
GI50 [13]: 0.318 µM
TGI [13]: > 56.1 µM
GI50 [14]: 0.381 µM
TGI [14]: > 84.1 µM
GI50 [15]: 0.643 µM
TGI [15]: 16.2 µM
GI50 [16]: 0.139 µM
TGI [16]: 0.765 µM
GI50 [17]: 0.231 µM
TGI [17]: 1.46 µM
GI50 [18]: 0.214 µM
TGI [18]: 36 µM
GI50 [19]: 0.0916 µM
TGI [19]: 0.528 µM
GI50 [20]: 3.65 µM
TGI [20]: > 100 µM
GI50 [21]: 0.835 µM
TGI [21]: 59.9 µM
TGI [56]: > 35.1 µM
GI50 [22]: 0.401 µM
TGI [22]: 14.1 µM
GI50 [23]: 0.0983 µM
TGI [23]: 0.561 µM
GI50 [24]: 0.113 µM
TGI [24]: 19 µM
GI50 [25]: 0.703 µM
TGI [25]: 40.6 µM
GI50 [26]: 0.398 µM
TGI [26]: 5.15 µM
GI50 [28]: 0.426 µM
TGI [28]: 39.8 µM
GI50 [29]: 0.384 µM
TGI [29]: 12.2 µM
GI50 [30]: 0.446 µM
TGI [30]: > 100 µM
GI50 [31]: 0.299 µM
TGI [31]: > 53.3 µM
GI50 [32]: 0.624 µM
TGI [32]: > 83.9 µM
TGI [33]: > 23.2 µM
GI50 [34]: 0.313 µM
TGI [34]: 11.2 µM
GI50 [35]: 0.667 µM
TGI [35]: > 31.1 µM
GI50 [36]: 0.192 µM
TGI [36]: > 100 µM
GI50 [37]: 0.89 µM
TGI [37]: > 66.1 µM
GI50 [38]: 0.258 µM
TGI [38]: > 100 µM
GI50 [39]: 0.709 µM
TGI [39]: > 75.9 µM
GI50 [40]: 0.241 µM
TGI [40]: 1.07 µM
GI50 [41]: 0.476 µM
TGI [41]: > 72.5 µM
GI50 [42]: 0.226 µM
TGI [42]: 1.75 µM
GI50 [43]: 0.539 µM
TGI [43]: 3.54 µM
GI50 [44]: 0.618 µM
TGI [44]: 8.68 µM
GI50 [57]: 0.248 µM
TGI [57]: 3.71 µM
GI50 [45]: 0.384 µM
TGI [45]: 2.54 µM
GI50 [58]: 0.131 µM
TGI [58]: 0.598 µM
GI50 [46]: 0.416 µM
TGI [46]: > 48.1 µM
GI50 [47]: 2.11 µM
TGI [47]: 44.5 µM
GI50 [48]: 0.118 µM
TGI [48]: 2.19 µM
GI50 [49]: 1.04 µM
TGI [49]: 28.4 µM
GI50 [50]: 0.921 µM
TGI [50]: > 100 µM
GI50 [59]: 0.0328 µM
TGI [59]: 0.347 µM
GI50 [51]: 0.11 µM
TGI [51]: 1.17 µM
GI50 [52]: 1.22 µM
TGI [52]: 44.2 µM
GI50 [53]: 0.293 µM
TGI [53]: 2.98 µM
GI50 [54]: 0.202 µM
TGI [54]: 1.38 µM
GI50 [55]: 0.111 µM
TGI [55]: 2.08 µM
